These results are taken from US20060134670A1, “Enabling tools to identify ligands for hormone nuclear receptors” (priority 2004, published 2006).

The target of one series is T1, LXRβ (NR1H2) (Homo sapiens, UniProt P55055).
T1 construct: expressed in transfected cells; host or cells: NIH-3T3
T1 sequence (P55055 1-460): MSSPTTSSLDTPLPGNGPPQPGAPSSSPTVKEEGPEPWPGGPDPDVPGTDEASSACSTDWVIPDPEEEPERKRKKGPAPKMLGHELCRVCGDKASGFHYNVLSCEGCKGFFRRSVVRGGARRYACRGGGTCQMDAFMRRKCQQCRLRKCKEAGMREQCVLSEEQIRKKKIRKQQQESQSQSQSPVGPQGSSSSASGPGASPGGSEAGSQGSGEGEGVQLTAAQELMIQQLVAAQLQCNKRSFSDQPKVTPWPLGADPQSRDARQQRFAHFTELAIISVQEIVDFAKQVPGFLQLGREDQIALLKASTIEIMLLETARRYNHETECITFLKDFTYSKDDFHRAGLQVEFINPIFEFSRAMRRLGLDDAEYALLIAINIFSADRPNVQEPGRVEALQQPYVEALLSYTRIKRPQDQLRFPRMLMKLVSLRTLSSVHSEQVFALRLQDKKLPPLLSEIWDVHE
The experiment in a line: R-SAT single receptor format, LXRβ. The class given is cell-based. The note with it: NIH-3T3 cells transfected with LXRβ. The source says: (§1) Curves were generated using XLFit software ([…]).

A further series has as its target T2, LXRα (NR1H3) (Homo sapiens, UniProt Q13133).
T2 construct: expressed in transfected cells; host or cells: NIH-3T3
T2 sequence (Q13133 1-447): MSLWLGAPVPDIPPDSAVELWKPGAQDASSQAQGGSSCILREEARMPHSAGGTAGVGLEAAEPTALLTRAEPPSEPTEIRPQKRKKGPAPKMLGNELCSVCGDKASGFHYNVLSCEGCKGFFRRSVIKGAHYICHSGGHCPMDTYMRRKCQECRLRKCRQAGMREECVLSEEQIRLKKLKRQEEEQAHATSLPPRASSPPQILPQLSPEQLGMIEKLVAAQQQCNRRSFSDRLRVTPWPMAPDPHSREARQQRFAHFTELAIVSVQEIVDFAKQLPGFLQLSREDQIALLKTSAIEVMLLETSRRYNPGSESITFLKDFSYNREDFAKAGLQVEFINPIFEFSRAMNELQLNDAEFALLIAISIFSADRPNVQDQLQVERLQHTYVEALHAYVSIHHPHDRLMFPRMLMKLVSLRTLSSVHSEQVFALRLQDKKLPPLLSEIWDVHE
The experiment in a line: R-SAT single receptor format, LXRα. The series is classed as cell-based. The note with it: NIH-3T3 cells transfected with LXRα.
Text: as §1

Series [1] has as its target T3, CARα and RXR nuclear receptors (heterodimer) (Homo sapiens, UniProt Q14994).
T3 construct: expressed in transfected cells
T3 sequence (Q14994 1-348 isoform Q14994-2): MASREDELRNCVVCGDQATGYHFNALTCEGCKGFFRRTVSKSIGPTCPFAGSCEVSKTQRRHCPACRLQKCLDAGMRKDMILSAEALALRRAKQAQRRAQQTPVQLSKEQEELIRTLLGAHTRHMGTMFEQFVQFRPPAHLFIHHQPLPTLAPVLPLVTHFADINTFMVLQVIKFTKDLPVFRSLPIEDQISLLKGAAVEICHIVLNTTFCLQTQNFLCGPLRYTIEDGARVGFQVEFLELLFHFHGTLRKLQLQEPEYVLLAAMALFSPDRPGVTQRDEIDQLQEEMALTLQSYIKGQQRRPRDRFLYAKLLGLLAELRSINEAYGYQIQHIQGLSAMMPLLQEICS
T3 sequence (P48443 1-463 partner): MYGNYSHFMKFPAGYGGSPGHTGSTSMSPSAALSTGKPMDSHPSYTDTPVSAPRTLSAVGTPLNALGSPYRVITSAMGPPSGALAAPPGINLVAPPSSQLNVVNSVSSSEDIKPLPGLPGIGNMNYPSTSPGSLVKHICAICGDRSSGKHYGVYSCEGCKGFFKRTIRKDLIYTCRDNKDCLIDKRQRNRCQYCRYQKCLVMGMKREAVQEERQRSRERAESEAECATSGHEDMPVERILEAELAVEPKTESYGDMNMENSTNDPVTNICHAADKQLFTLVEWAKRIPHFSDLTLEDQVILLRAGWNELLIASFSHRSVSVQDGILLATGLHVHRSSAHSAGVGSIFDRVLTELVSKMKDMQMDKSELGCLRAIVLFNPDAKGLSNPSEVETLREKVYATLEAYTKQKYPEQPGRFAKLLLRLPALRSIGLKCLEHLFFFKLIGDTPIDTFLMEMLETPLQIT
Description: R-SAT inverse agonism, CARα/RXR. The class given is cell-based. The note with it: cells transfected with CARα and RXR, β-galactosidase activity, FIG. 4A.
Text: as §1

The next series concerns the target T4, PPARδ (NR1C2) (Homo sapiens, UniProt Q03181).
T4 construct: expressed in transfected cells; host or cells: NIH-3T3
T4 sequence (Q03181 1-441): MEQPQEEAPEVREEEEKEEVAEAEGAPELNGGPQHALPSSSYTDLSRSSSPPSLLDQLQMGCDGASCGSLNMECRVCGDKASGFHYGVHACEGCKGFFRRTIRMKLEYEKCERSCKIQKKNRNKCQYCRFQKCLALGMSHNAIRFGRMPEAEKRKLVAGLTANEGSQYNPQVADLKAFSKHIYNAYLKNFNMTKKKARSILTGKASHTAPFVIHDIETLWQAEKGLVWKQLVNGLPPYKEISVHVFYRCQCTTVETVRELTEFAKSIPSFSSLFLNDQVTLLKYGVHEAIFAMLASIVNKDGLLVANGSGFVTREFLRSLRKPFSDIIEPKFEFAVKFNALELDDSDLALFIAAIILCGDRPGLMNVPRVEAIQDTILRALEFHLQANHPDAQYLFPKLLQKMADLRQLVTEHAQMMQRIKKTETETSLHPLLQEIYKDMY
Description: R-SAT single receptor format, PPARδ. The note with it: NIH-3T3 cells transfected with PPARδ. The series is classed as cell-based.
Text: as §1

A further series deals with T5, PXR/RXR heterodimer (Homo sapiens, UniProt O75469).
T5 sequence (O75469 1-434): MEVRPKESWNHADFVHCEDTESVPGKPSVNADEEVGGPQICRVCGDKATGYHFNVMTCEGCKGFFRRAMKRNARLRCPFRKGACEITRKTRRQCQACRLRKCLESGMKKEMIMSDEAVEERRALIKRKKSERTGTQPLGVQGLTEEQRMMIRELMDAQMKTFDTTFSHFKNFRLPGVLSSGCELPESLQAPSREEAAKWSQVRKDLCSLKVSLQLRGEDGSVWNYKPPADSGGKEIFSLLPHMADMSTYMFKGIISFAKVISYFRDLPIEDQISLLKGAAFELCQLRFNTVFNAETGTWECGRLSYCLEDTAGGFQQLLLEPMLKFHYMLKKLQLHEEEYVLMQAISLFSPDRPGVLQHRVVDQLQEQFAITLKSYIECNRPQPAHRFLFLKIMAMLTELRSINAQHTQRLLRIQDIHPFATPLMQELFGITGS
T5 sequence (P48443 1-463 partner): T3 sequence (P48443 1-463 partner)
The note with it: 5 days.

Description for PXR/RXR heterodimer: On day one, cells were trypsinized, centrifuged and plated at 8,000 cells/well in a 96-well plate in 100 μl/well of Dubelcco's Modified Eagle's Medium (DMEM), 10% calf serum. On day two, cells were transfected using the transfection reagent Superfect® (Qiagen, Inc.) as recommended by the manufacturer. Various doses of the nuclear receptor plasmid DNA were transfected. DNA mixtures included 0.1 to 10 ng/well of receptors DNA, 20 to 30 ng/well of β-galactosidase plasmid DNA (pSV β-galactosidase, Promega) and 15 μl of Superfect®. On day three, the media was replaced by DMEM with 2% Cyto-SF3 (Kemp Biotechnologies, Inc.) containing variable amounts of the compounds being tested. […] All data were obtained by measuring the change in absorbance at 420 nm using an automated plate reader. EC50 values were calculated using the equation r=A+B(x/(c+c)), where A=minimum response, B=maximum response minus maximum response, c=EC50, r=response, and x=concentration of ligand. Curves were generated using XLFit software (Microsoft).
The coactivators GRIP1 (Glucocorticoid Receptor Interacting Protein 1) (GenBank U39060) and SRC-1 (Steroid Receptor Coactivator 1) (GenBank U90661) were used in this assay. In summary, plasmid DNA encoding the coactivator(s) were transfected along with the aforementioned transfection mixture (containing the PXR, RXR, and β-Gal plasmid DNAs).

For `CC(C)CC[C@@H](O)[C@@H](C)[C@H]1CC[C@H]2[C@@H]3CC=C4C[C@@H](O)CC[C@]4(C)[C@H]3CC[C@]12C` [22(R)OH-Cholesterol], the concentration giving a half-maximal response (EC50) at LXRβ (NR1H2) and at LXRα (NR1H3) was 3000 to 5000 nM each time. As to `C[C@]12CC[C@@H](O)C[C@@H]1CC[C@@H]1[C@@H]2CC[C@]2(C)C=CC[C@@H]12` [Androstenol], the inverse agonist activity result in series [1] was “inverse agonist activity”. For the compound `CCCCC[C@H](O)/C=C/[C@@H]1[C@H]2C/C(=C/CCCC(=O)O)C[C@H]2C[C@H]1O` [carbaprostacyclin], the EC50 (commonly the concentration that produces a half-maximal response) at PPARδ (NR1C2) was in the range of 200 to 500 nM. Regarding `CO[C@H]1/C=C/O[C@@]2(C)Oc3c(C)c(O)c4c(O)c(c(/C=N/N5CCN(C)CC5)c(O)c4c3C2=O)NC(=O)/C(C)=C\C=C\[C@H](C)[C@H](O)[C@@H](C)[C@@H](O)[C@@H](C)[C@H](OC(C)=O)[C@@H]1C` [rifampicin], the “efficacy of pharmacological response” value at PXR/RXR heterodimer was 5-10%.
